The record followed here is PMC7071109, “Validation of an HPLC Method for the Simultaneous Quantification of Metabolic Reaction Products Catalysed by CYP2E1 Enzyme Activity: Inhibitory Effect of Cytochrome P450 Enzyme CYP2E1 by Salicylic Acid in Rat Liver Microsomes” (Molecules, 2020).

This assay concerns the target CYP2E1 (Rattus norvegicus, UniProt P05182). Briefly: inhibition of chlorzoxazone 6-hydroxylation in rat liver microsomes, HPLC. The format is biochemical. (In general: Liver microsomes are a subcellular fraction often used to study metabolism.)

CYP2E1, sequence (P05182 2-493): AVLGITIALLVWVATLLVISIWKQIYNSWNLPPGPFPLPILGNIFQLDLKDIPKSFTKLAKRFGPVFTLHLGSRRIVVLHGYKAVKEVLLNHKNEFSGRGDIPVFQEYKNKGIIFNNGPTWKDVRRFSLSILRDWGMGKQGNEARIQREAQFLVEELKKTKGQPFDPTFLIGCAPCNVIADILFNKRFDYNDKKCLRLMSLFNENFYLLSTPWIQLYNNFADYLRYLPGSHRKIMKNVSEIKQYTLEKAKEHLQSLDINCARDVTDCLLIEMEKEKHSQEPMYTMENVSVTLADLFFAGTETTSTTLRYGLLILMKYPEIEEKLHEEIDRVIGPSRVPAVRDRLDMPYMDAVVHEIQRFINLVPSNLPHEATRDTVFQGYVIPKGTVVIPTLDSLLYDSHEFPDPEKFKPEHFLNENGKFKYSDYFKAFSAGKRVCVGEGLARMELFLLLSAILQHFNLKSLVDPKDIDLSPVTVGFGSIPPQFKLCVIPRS

Usually Ki stands for a dissociation constant, usually derived from enzyme kinetics or from competition with a known ligand. A higher Ki goes with lower affinity. For the compound `O=C(O)c1ccccc1O` [salicylic acid], the Ki turned out to be 83.6 ± 2.73 µM.
